According to patent US20230391776A1, “AMIDE OXAZOLE COMPOUND” (MEDSHINE DISCOVERY INC., priority 2020, published 2023):

Tests used:
human BTK = target: T1, human BTK (Homo sapiens, UniProt Q06187); assay: In vitro BTK kinase activity, 33P isotope-labeled kinase assay; assay type: biochemical
T1 construct: purchased Reaction Biology Corp
Procedure: The IC50 values were determined using ^33P isotope-labeled kinase activity assay (Reaction Biology Corp) to evaluate the inhibitory ability of the tested compounds on human BTK.
(§1) Buffer conditions: 20 mM Hepes (pH 7.5), 10 mM MgCl2, 1 mM EGTA, 0.02% Brij35, 0.02 mg/mL BSA, 0.1 mM Na3VO4, 2 mM DTT, 1% DMSO.
Test procedure: At room temperature, the tested compound was dissolved in DMSO and a 10 mM solution was prepared for use. The substrate was dissolved in a newly prepared buffer solution, and the BTK kinase was added thereto and mixed evenly. The compound dissolved in DMSO was added to the kinase reaction mixture through Echo 550 (Acoustic technology; Nanoliter range). After incubation for 20 minutes at room temperature, ^33P-ATP was added to initiate the reaction. The reaction was carried out at room temperature for 2 hours, and the radioactivity of the reaction solution drop was detected by filtration-binding method with P81 ion exchange filter paper. The kinase activity data were expressed by comparing the kinase activity of the group containing the tested compound with the kinase activity of the blank group (only containing DMSO), and the IC50 value was obtained by curve fitting by Prism4 software (GraphPad), the experimental results were shown in Table 3.

human IRAK4 = target: T2, human IRAK4 (Homo sapiens, UniProt Q9NWZ3); assay: In vitro IRAK4 kinase activity, 33P isotope-labeled kinase assay; assay type: biochemical
T2 construct: purchased Reaction Biology Corp
T2 sequence (Q9NWZ3 1-460): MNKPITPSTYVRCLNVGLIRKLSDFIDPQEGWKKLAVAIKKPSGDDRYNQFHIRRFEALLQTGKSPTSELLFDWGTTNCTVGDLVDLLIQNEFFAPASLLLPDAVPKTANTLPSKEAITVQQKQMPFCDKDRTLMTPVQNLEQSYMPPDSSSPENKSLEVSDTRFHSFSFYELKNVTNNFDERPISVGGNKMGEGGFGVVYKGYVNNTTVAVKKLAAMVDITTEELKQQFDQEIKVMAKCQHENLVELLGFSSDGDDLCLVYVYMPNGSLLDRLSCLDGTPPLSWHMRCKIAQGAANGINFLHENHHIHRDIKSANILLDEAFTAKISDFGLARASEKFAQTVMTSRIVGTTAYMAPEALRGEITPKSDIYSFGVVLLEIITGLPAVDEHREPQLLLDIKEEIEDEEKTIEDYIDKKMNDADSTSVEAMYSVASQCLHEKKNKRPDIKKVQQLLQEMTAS
Procedure: The IC50 values were determined using ^33P isotope-labeled kinase activity assay (Reaction Biology Corp) to evaluate the inhibitory ability of the tested compounds on human IRAK4.
as §1
Test procedure: At room temperature, the tested compound was dissolved in DMSO and a 10 mM solution was prepared for use. The substrate was dissolved in a newly prepared buffer solution, and the tested IRAK4 kinase was added thereto and mixed evenly. The DMSO solution dissolved with the tested compound was added to the above mixed evenly reaction solution using acoustic technique (Echo 550). After incubation for 15 minutes, ^33P-ATP was added to initiate the reaction. The reaction was carried out at room temperature for 120 minutes, and the reaction mixture was dropped on P81 ion exchange filter paper (Whatman #3698-915). The filter paper was washed repeatedly with 0.75% phosphoric acid solution, and the radioactivity of phosphorylated substrate residues on the filter paper was determined. The kinase activity data were expressed by comparing the kinase activity of the group containing the tested compound with the kinase activity of the blank group (only containing DMSO), and the IC50 value was obtained by curve fitting by Prism4 software (GraphPad), the experimental results were shown in Table 2.

[1] = test system: OCI-LY10 human diffuse large B lymphoma cells; assay: OCI-LY10 cell proliferation (Cell Titer Glo); assay type: cell-based; conditions: 72 hours
Procedure: (§2) The tumor cell lines OCI-LY10 and TMD-8 were used to detect the effect of the compound of the disclosure on inhibiting tumor cell proliferation in vitro.
OCI-LY10 human diffuse large B lymphoma cells, from Nanjing Cobioer Biotechnology Co., Ltd
(§3) The compound was diluted with DMSO to a final concentration of 10 mM. The compound was freshly prepared and ready for use.
(§4) a) Logarithmic growth period cells were collected, counted, resuspended with complete culture medium, the cell concentration was adjusted to an appropriate concentration (determined according to the results of cell density optimization test), inoculated on 96-well plates, and 100 μL of cell suspension was added to each well. Cells were incubated in an incubator with 37° C., 100% relative humidity and 5% CO2 for 24 hours.
(§5) b) The compound to be tested was diluted to 50 μM with culture medium and then gradient diluted for 8 times. Cells were added with 25 μL/well. The final concentrations of the compound were from […], 3-fold gradient dilution, with a total of 9 concentration points.
(§6) c) Cells were incubated in an incubator with 37° C., 100% relative humidity and 5% CO2 for 72 hours;
(§7) d) 60 μL of CTG test reagent was added to the culture medium.
(§8) e) Shaked fully and reacted in the dark for 10 min. Luminescence was measured on ENVISION and the inhibition rate was calculated.
(§9) Cell growth inhibition rate %=[(RLUv−RLUs)/(RLUv−RLUb)]×100%

[2] = test system: TNF-α production in THP-1 cells; assay: TNF-α ELISA in LPS-stimulated THP-1 cells; assay type: cell-based; conditions: Homo sapiens, TNF-α in supernatant, 150 ng/mL LPS, 18 hours
Procedure: THP-1 human acute single cell leukemia cells were purchased from ATCC (Cat #TIB-202) and cultured at 37° C. in 5% CO2 incubator. The composition of medium was RPMI1640 (Gibco, Cat #22400-105), and the supplementary compositions were 10% FBS (Gibco, Cat #10091148); 1% PenStrep (Gibco, Cat #15140); 0.05 mM β-mercaptoethanol (Sigma, Cat #M6250).
TNF-α Elisa kit was used to detect the content of TNF-α in cell culture supernatant samples. TNF-α was produced by stimulating THP-1 cells with 150 ng/mL LPS (Sigma, Cat #L6529).
THP-1 cells cultured normally at logarithmic growth period were seeded in a 96-well plate (Corning #3599) at a certain concentration (1*10^5/100 μL) and then put into a cell incubator for incubation. After two hours, 16.7 μL of different concentrations of the compound to be tested (8*final concentration) were added and incubated in an incubator. After one hour, 16.7 μL of 1200 ng/mL LPS was added and incubated in an incubator. After 18 hours, the culture supernatant samples were collected by centrifugation, and the content of TNF-α could be detected by TNF-α Elisa kit. Finally, OD signals (OD450-OD570) were read on envision board reader.
The OD450-OD570 signal value was converted into a percentage inhibition rate.
Inhibition rate %=(ZPE−sample)/(ZPE−HPE)*100.
“HPE” referred to the OD450-OD570 signal value of the control well without LPS stimulated cells, and “ZPE” referred to the OD450-OD570 signal value of the control well with LPS stimulated cells. The IC50 value of the compound was calculated by XLFit in the excel add-in.
Y=Bottom+(Top−Bottom)/(1+(IC50/X)^HillSlope). Equation: […]

[3] = test system: TMD-8 human diffuse large B lymphoma cells; assay: TMD-8 cell proliferation (Cell Titer Glo); assay type: cell-based; conditions: TMD8, 72 hours
Procedure: as §2
TMD-8 human diffuse large B lymphoma cells, from Nanjing Cobioer Biotechnology Co., Ltd
as §3, §4, §5, §6, §7, §8, §9

OCI-LY3 cell line = assay: OCI-LY3 cell proliferation (CTG); assay type: cell-based; conditions: Homo sapiens, 72 hours
Procedure: The tumor cell line OCI-LY3 was used to detect the effect of the compound of the disclosure on inhibiting tumor cell proliferation in vitro.
The tumor cell line used in this experiment was provided by Nanjing Cobioer Biotechnology Co., Ltd. See Table 6 below for specific information.
The OCI-LY3 cell line was cultured in the corresponding medium at 37° C. and 5% CO2, and the logarithmic growth period cells were used for experimental planking. The cells were collected and centrifuged at 800 rpm for 5 minutes, and the culture medium was re-suspended and spread in a 96-well plate. After being cultured overnight in 37° C., 5% CO2 incubator, drugs with different concentration gradients (10 μL of prepared diluent of test compound was added) were added, and incubated in 37° C., 5% CO2 incubator for 72 hours. The cell culture plate was incubated with CTG reagent at room temperature in the dark for 30 minutes and return to room temperature. CTG solution was added into the biosafety cabinet in the dark 100 μL/well, and was shaken and mixed evenly on plate shaker in the dark for 2 minutes, and incubated at room temperature in the dark for 10 minutes. The luminous value was read and recorded with Perkin Elmer Envision instrument.
The luminous value of the blank control group was subtracted from the luminous value measured at each drug concentration, the ratio of this value to DMSO group was taken as the cell inhibition rate (%). GraphPad software was used, the logarithm of drug concentration (log drug concentration) versus inhibition rate was plotted, and the IC50 value and 95% confidence value were automatically fitted and calculated by log (inhibitor) vs. response-variable slop (four parameters) algorithm of nonlinear regression by software.

T1 sequence (Q06187 whole entry): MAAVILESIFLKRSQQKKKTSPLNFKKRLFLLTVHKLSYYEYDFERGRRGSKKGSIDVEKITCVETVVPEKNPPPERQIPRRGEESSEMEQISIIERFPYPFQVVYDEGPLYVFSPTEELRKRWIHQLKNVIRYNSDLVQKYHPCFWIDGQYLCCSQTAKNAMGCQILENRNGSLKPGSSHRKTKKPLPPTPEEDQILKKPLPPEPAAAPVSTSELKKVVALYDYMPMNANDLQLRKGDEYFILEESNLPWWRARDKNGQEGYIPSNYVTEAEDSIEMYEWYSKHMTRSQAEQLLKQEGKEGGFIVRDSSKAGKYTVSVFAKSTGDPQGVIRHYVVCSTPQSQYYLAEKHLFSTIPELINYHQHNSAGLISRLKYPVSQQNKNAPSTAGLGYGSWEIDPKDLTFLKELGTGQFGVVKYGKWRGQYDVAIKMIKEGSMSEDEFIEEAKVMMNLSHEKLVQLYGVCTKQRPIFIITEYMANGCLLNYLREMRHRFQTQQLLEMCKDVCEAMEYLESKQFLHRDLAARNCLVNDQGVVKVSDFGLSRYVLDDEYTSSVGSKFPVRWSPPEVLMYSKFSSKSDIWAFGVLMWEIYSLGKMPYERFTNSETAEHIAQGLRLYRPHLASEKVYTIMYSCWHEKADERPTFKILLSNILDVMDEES

Row | Compound | IC50 (human BTK) | IC50 (human IRAK4) | IC50 [1] | IC50 [2] | IC50 [3] | IC50 (OCI-LY3 cell line)
1 | Cc1cc(-c2nc(C(=O)Nc3cn4cc(CCS(C)(=O)=O)nc4cc3-c3ccccc3)co2)ccn1 [WX012] | 14.4 nM | 0.4 nM | 20 nM | – | – | –
2 | Cc1cc(-c2nc(C(=O)Nc3cn4cc(CC(C)(C)O)nc4cc3-c3ccccc3)co2)ccn1 [WX038] | – | 0.3 nM | – | – | – | –
3 | Cc1cc(-c2nc(C(=O)Nc3cn4cc(C(C)(C)O)nc4nc3-c3ccccc3)co2)ccn1 [WX018] | – | 5.1 nM | – | – | – | –
4 | Cc1cc(-c2nc(C(=O)Nc3cn4cc(CC(N)=O)nc4cc3-c3ccccc3)co2)ccn1 [WX025] | – | 0.1 nM | – | – | – | –
5 | Cc1nccc(-c2nc(C(=O)Nc3cn4cc(C(C)(C)O)nc4cc3-c3ccccc3)co2)c1Cl [WX036] | – | 0.4 nM | 15.2 nM | 57.1 nM | 16.7 nM | 42 nM
6 | CC(C)(O)CCc1cn2cc(NC(=O)c3coc(-c4ccnc(N)c4)n3)c(N3CCCCC3)cc2n1 [WX001] | 7.9 nM | 1.8 nM | 29 nM | 20 nM | 10 nM | 57 nM
7 | CS(=O)(=O)CCc1cn2cc(NC(=O)c3coc(-c4ccnc(N)c4)n3)c(N3CCCCC3)cc2n1 [WX011] | 1.3 nM | 4.7 nM | 6 nM | – | 28 nM | 26 nM
8 | Cc1cc(-c2nc(C(=O)Nc3cn4cc(CCN(C)C)nc4cc3-c3ccccc3)co2)ccn1 [WX015] | 5.6 nM | 0.4 nM | 36 nM | 60 nM | – | –
9 | Cc1cc(-c2nc(C(=O)Nc3cn4cc(CCC(C)(C)O)nc4cc3N3CCC4(CC3)COC4)co2)ccn1 [WX008] | 71 nM | 4.3 nM | – | – | – | –
10 | CNc1cc(-c2nc(C(=O)Nc3cn4cc(C(C)(C)O)nc4cc3-c3ccccc3)co2)ccn1 [WX023] | 1 nM | 0.1 nM | 14 nM | – | – | –
11 | COc1cc(-c2nc(C(=O)Nc3cn4cc(C(C)(C)O)nc4cc3-c3ccccc3)co2)ccn1 [WX022] | 45 nM | 0.1 nM | – | – | – | –
12 | Cc1cc(-c2nc(C(=O)Nc3cn4cc(S(C)(=O)=O)nc4cc3-c3ccccc3)co2)ccn1 [WX029] | – | 0.1 nM | 48 nM | – | – | –
13 | CN(C)CCc1cn2cc(NC(=O)c3coc(-c4ccnc(N)c4)n3)c(-c3ccccc3)cc2n1 [WX016] | 1.6 nM | 2 nM | 3 nM | – | 6 nM | 37 nM
14 | Cc1cc(-c2nc(C(=O)Nc3cn4cc(C(C)(C)O)nc4cc3-c3ccccn3)co2)ccn1 [WX021] | 19.8 nM | 0.3 nM | – | – | – | –
15 | Cc1nccc(-c2nc(C(=O)Nc3cn4cc(C(C)(C)O)nc4cc3-c3ccccc3)co2)c1F [WX028] | – | 0.1 nM | – | – | – | –
16 | COc1cc(-c2nc(C(=O)Nc3cn4cc(CCC(C)(C)O)nc4cc3N3CCCCC3)co2)ccn1 [WX003] | 15.4 nM | 0.6 nM | – | – | – | –
17 | CC(=O)Nc1cc(-c2nc(C(=O)Nc3cn4cc(CCC(C)(C)O)nc4cc3N3CCCCC3)co2)ccn1 [WX002] | – | 6.6 nM | 125 nM | 116 nM | – | –
18 | Cc1cc(-c2nc(C(=O)Nc3cn4cc(CCC(C)(C)O)nc4cc3N3CCC4(CCOC4)CC3)co2)ccn1 [WX007] | 4.1 nM | 0.4 nM | – | – | – | –
19 | CC(C)(O)CCc1cn2cc(NC(=O)c3coc(-c4ccnc5[nH]ccc45)n3)c(N3CCCCC3)cc2n1 [WX005] | 0.6 nM | 1.5 nM | – | 171 nM | 325 nM | –
20 | Cc1cc(-c2nc(C(=O)Nc3cn4cc(N=S(C)(C)=O)nc4cc3-c3ccccc3)co2)ccn1 [WX032] | – | 0.9 nM | – | – | – | –
21 | Cc1cc(-c2nc(C(=O)Nc3cn4cc(C(C)(C)O)nc4cc3N3CCC(CO)CC3)co2)ccn1 [WX010] | 21.2 nM | 2.1 nM | – | – | – | –
22 | CN(C)c1cc(-c2nc(C(=O)Nc3cn4cc(CCC(C)(C)O)nc4cc3N3CCCCC3)co2)ccn1 [WX004] | – | 12 nM | – | – | – | –
23 | CN(C)CCc1cn2cc(NC(=O)c3coc(-c4ccnc(N)c4)n3)c(N3CCCCC3)cc2n1 [WX014] | 0.5 nM | 2.5 nM | 18 nM | – | 40 nM | 41 nM
24 | CNc1cc(-c2nc(C(=O)Nc3cn4cc(CCC(C)(C)O)nc4cc3N3CCCCC3)co2)ccn1 [WX006] | 0.7 nM | 1 nM | 36 nM | 94 nM | 183 nM | –
